Test: Solubility of ubiquinone-10 in aqueous methanol solution
Type: physicochemical
Conditions: aqueous methanol solutions of varying concentration at 20, 30, 50 and 70° C. (FIG. 1)
Excerpt: Using a standard ubiquinone-10 (manufactured by Wako Pure Chemical Industries Co., Ltd.), the solubility of ubiquinone-10 is an aqueous methanol solution was examined in terms of the relation between the concentration of the solution and temperature.

SMILES: COC1=C(OC)C(=O)C(C/C=C(\C)CC/C=C(\C)CC/C=C(\C)CC/C=C(\C)CC/C=C(\C)CC/C=C(\C)CC/C=C(\C)CC/C=C(\C)CC/C=C(\C)CCC=C(C)C)=C(C)C1=O [ubiquinone-10]
- solubility of ubiquinone-10 in aqueous methanol solution: increased in proportion to the methanol concentration and the temperature of the aqueous methanol solution
